# In US20230303575A1, “FGFR AND MUTATION INHIBITOR THEREOF, PREPARATION METHOD THEREFOR AND USE THEREOF” (Abbisko Therapeutics Co., Ltd., priority 2020, published 2023):
# Legend:
# Type in all cases: cell-based
# [1] = biological target: T1, FGFR3 V555M (Homo sapiens, UniProt P22607, V555M); assay: Cell proliferation assay for FGFR3 V555M in BaF3; settings: BaF3 cells expressing FGFR3 V555M fusion, 48 hrs, CellTiter Glo
# T1 construct: P41212 (Transcription factor ETV6)
# Procedure: For the compounds of the Examples of the present invention, cell strains of TEL-FGFR3 WT intracellular kinase domain fusion protein or intracellular domain fusion protein containing FGFR3 V555M or FGFR3 N540K mutation were stably expressed in Baf cells by transfection and were used to determine the cell proliferation effect of BaF3-Tel-FGFR3 WT. FGFR3 V555M or FGFR3 N540K. The specific test process was as follows: • 1) The cell suspension was plated into a 96-well plate containing growth medium (DMEM containing 1% Glutamax, 10% FBS and 1% Pen/Strep) at 2000-4000 cells/90 μL/per well, and then the mixture was incubated overnight at 37° C. and 5% CO2. • 2) 10 μL of growth medium containing a 10-fold stock solution of test compound was added to the cell culture (9 dose points, 3× serial dilution, starting from 1 μM, finally 0.3% DMSO). • 3) The mixture was incubated at 37° C. and 5% CO2 for 48 hrs. • 4) 50 μL of CellTiter Glo (CTG) reagent was added to the cell-containing 96-well plate, and the plate was then incubated at room temperature for 10 min. • 5) Relative light units (RLUs) were measured on a microplate reader with a luminescence detection module. RLU values were normalized to % survival, and concentration-response curves were plotted using Prism to calculate IC50 (nM).
# [2] = biological target: T2, FGFR2 V564L (Homo sapiens, UniProt P21802, V564L); assay: Cell proliferation assay for Tel-FGFR2 V564L in BaF3; settings: BaF3 cells expressing FGFR2 V564L fusion, 48 hrs, CellTiter Glo
# T2 construct: P41212 (Transcription factor ETV6)
# Procedure: (§1) By transfection, cell strains of the intracellular kinase domain fusion protein of TEL-FGFR2 WT or the intracellular domain fusion proteins containing FGFR2 V564, V564F, V564L, N549K and K659M mutations were stably expressed in Baf cells. On day 1, the cell suspension was plated into a 96-well plate containing growth medium (DMEM containing 1% Glutamax, 10% FBS and 1% Pen/Strep) at 2000-4000 cells/90 μL/per well, and then the mixture was incubated overnight at 37° C. and 5% CO2. On day 2, 10 μL of growth medium containing a 10-fold stock solution of test compound was added to the cell culture (9 dose points, 3× serial dilution, starting from 1 μM, finally 0.3% DMSO). After incubation at 37° C. and 5% CO2 for 48 hrs, 50 μL of CellTiter Glo (CTG) reagent was added to the cell-containing 96-well plate on day 3, and the plate was then incubated at room temperature for 10 min. Then relative light units (RLUs) were measured on a microplate reader with a luminescence detection module. RLU values were normalized to % survival, and concentration-response curves were plotted using Prism to calculate IC50 (nM).
# [3] = biological target: T3, FGFR2 V564F (Homo sapiens, UniProt P21802, V564F); assay: Cell proliferation assay for Tel-FGFR2 V564F in BaF3; settings: BaF3 cells expressing FGFR2 V564F fusion, 48 hrs, CellTiter Glo
# T3 construct: P41212 (Transcription factor ETV6)
# Procedure: as §1
# [4] = biological target: T4, FGFR2 V564I (Homo sapiens, UniProt P21802, V564I); assay: Cell proliferation assay for Tel-FGFR2 V564I in BaF3; settings: BaF3 cells expressing FGFR2 V564I fusion, 48 hrs, CellTiter Glo
# T4 construct: P41212 (Transcription factor ETV6)
# Procedure: as §1
# [5] = biological target: T5, FGFR2 N549K (Homo sapiens, UniProt P21802, N549K); assay: Cell proliferation assay for Tel-FGFR2 N549K in BaF3; settings: BaF3 cells expressing FGFR2 N549K fusion, 48 hrs, CellTiter Glo
# T5 construct: P41212 (Transcription factor ETV6)
# Procedure: as §1
# T1 sequence (P22607 472-761 V555M limits assumed): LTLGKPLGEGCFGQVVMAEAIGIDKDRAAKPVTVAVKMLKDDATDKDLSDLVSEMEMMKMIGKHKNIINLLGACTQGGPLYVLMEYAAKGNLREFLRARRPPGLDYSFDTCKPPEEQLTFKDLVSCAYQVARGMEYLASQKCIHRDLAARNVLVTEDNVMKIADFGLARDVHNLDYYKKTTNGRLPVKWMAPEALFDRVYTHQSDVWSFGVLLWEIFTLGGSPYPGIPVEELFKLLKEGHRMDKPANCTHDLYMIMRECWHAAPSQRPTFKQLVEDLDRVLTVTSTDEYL
# T2 sequence (P21802 481-770 V564L limits assumed): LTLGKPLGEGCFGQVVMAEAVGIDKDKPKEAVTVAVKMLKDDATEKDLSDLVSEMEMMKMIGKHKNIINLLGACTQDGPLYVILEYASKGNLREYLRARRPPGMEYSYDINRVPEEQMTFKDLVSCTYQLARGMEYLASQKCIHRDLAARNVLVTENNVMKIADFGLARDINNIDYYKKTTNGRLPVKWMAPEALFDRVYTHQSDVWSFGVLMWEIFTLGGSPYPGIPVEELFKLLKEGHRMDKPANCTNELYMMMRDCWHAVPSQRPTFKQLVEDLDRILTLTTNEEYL
# T3 sequence (P21802 481-770 V564F limits assumed): as the sequence (P21802 481-770 V564L limits assumed) above, with L84F counted along it
# T5 sequence (P21802 481-770 N549K limits assumed): as the sequence (P21802 481-770 V564L limits assumed) above, with N69K, L84V counted along it
# T4 sequence (P21802 481-770 V564I limits assumed): as the sequence (P21802 481-770 V564L limits assumed) above, with L84I counted along it
Structure (SMILES),IC50 [1],IC50 [2],IC50 [3],IC50 [4],IC50 [5]
"C=CC(=O)N1CC[C@H](n2cc(C#Cc3c(F)cc4sc(C5CC5)nc4c3F)c3c(N)ncnc32)C1 [Example 51, (S)-1-(3-(4-amino-5-((2-cyclopropyl-4,6-difluoro-benzo[d]thiazol-5-yl)ethynyl)-7H-pyrrolo[2,3-d]pyrimidin-7-yl)pyrrolidin-1-yl) prop-2-en-1-one]",0.5 to 5 nM,0.5 to 5 nM,≤ 0.5 nM,≤ 0.5 nM,0.5 to 5 nM
"C=CC(=O)N1CC[C@H](n2nc(C#Cc3ccc4sc(C5CC5)nc4c3)c3c(N)ncnc32)C1 [Example 54, (S)-1-(3-(4-amino-3-((2-cyclopropylbenzo[d]thiazol-5-yl)ethynyl)-1H-pyrazolo [3,4-d]pyrimidin-1-yl)pyrrolidin-1-yl)prop-2-en-1-one]",5 to 50 nM,0.5 to 5 nM,0.5 to 5 nM,–,0.5 to 5 nM
"C=CC(=O)N1CC[C@H](n2nc(C#Cc3ccc4sc(C(F)F)nc4c3)c3c(N)ncnc32)C1 [Example 55, (S)-1-(3-(4-amino-3-((2-(difluoromethyl)benzo[d]thiazol-5-yl)ethynyl)-1H-pyrazolo[3,4-d]pyrimidin-1-yl)pyrrolidin-1-yl)prop-2-en-1-one]",5 to 50 nM,5 to 50 nM,5 to 50 nM,–,0.5 to 5 nM
"C=CC(=O)N1CCC(c2cc(C#Cc3ccc4oc(C5CC5)nc4c3)c3c(N)ncnn23)C1 (centres unmarked) [Example 63, 1-(3-(4-amino-5-((2-cyclo-propylbenzo[d]oxazol-5-yl)ethynyl)pyrrolo[2,1-f][1,2,4]triazin-7-yl)pyrrolidin-1-yl)prop-2-en-1-one]",5 to 50 nM,–,0.5 to 5 nM,–,–
"C=CC(=O)N1CC[C@H](n2nc(C#Cc3ccc4sc(C)nc4c3)c3c(N)ncnc32)C1 [Example 52, (S)-1-(3-(4-amino-3-((2-methylbenzo[d]thiazol-5-yl)ethynyl)-1H-pyrazolo [3,4-d]pyrimidin-1-yl)pyrrolidin-1-yl)prop-2-en-1-one]",5 to 50 nM,5 to 50 nM,0.5 to 5 nM,–,5 to 50 nM
"C=CC(=O)N1CC[C@H](n2nc(C#Cc3cc4nc(N5CCC5)oc4cc3F)c3c(N)ncnc32)C1 [Example 34, (S)-1-(3-(4-amino-3-((2-(azetidin-1-yl)-6-fluorobenzo [d]oxazol-5-yl)ethynyl)-1H-pyrazolo[3,4-d]pyrimidin-1-yl)pyrrolidin-1-yl) prop-2-en-1-one]",0.5 to 5 nM,–,0.5 to 5 nM,–,–
"C=CC(=O)N1CC[C@H](n2nc(C#Cc3cc4nc(N(C)C)oc4cc3F)c3c(N)ncnc32)C1 [Example 31, (S)-1-(3-(4-amino-3-((2-(dimethylamino)-6-fluoro-benzo[d]oxazol-5-yl)ethynyl)-1H-pyrazolo[3,4-d]pyrimidin-1-yl)pyrrolidin-1-yl)prop-2-en-1-one]",5 to 50 nM,–,0.5 to 5 nM,–,–
"C=CC(=O)N1CC[C@H](n2cc(C#Cc3c(F)cc4oc(N5CCC5)nc4c3F)c3c(N)ncnc32)C1 [Example 73, (S)-1-(3-(4-amino-5-((2-(azetidin-1-yl)-4,6-difluoro-benzo[d]oxazol-5-yl)ethynyl)-7H-pyrrolo[2,3-d]pyrimidin-7-yl)pyrrolidin-1-yl) prop-2-en-1-one]",0.5 to 5 nM,–,≤ 0.5 nM,–,–
"C=CC(=O)N1CC[C@H](n2cc(C#Cc3ccc4oc(CC)nc4c3)c3c(N)ncnc32)C1 [Example 3, (S)-1-(3-(4-amino-5-((2-ethylbenzo[d]oxazol-5-yl)ethynyl)-7H-pyrrolo[2,3-d]pyrimidin-7-yl)pyrrolidin-1-yl)prop-2-en-1-one]",5 to 50 nM,0.5 to 5 nM,0.5 to 5 nM,–,0.5 to 5 nM
"C=CC(=O)N1CC[C@H](n2cc(C#Cc3ccc4oc(C)nc4c3)c3c(N)ncnc32)C1 [Example 2, (S)-1-(3-(4-amino-5-((2-methylbenzo[d]oxazol-5-yl)ethynyl)-7H-pyrrolo[2,3-d]pyrimidin-7-yl)pyrrolidin-1-yl)prop-2-en-1-one]",5 to 50 nM,0.5 to 5 nM,≤ 0.5 nM,–,0.5 to 5 nM
"C=CC(=O)N1CC[C@H](n2cc(C#Cc3ccc4sc(C(F)F)nc4c3)c3c(N)ncnc32)C1 [Example 45, (S)-1-(3-(4-amino-5-((2-(difluoromethyl)benzo[d]thiazol-5-yl)ethynyl)-7H-pyrrolo[2,3-d]pyrimidin-7-yl)pyrrolidin-1-yl)prop-2-en-1-one]",5 to 50 nM,0.5 to 5 nM,0.5 to 5 nM,–,0.5 to 5 nM
"C=CC(=O)N1CC[C@H](n2cc(C#Cc3ccc4oc(C(F)F)nc4c3)c3c(N)ncnc32)C1 [Example 71, (S)-1-(3-(4-amino-5-((2-(difluoromethyl)benzo[d]oxazol-5-yl)ethynyl)-7H-pyrrolo[2,3-d]pyrimidin-7-yl)pyrrolidin-1-yl)prop-2-en-1-one]",5 to 50 nM,5 to 50 nM,0.5 to 5 nM,–,0.5 to 5 nM
"C=CC(=O)N1CC[C@H](n2cc(C#Cc3ccc4oc(NC)nc4c3)c3c(N)ncnc32)C1 [Example 7, (S)-1-(3-(4-amino-5-((2-(methylamino)benzo[d]oxazol-5-yl)ethynyl)-7H-pyrrolo[2,3-d]pyrimidin-7-yl)pyrrolidin-1-yl)prop-2-en-1-one]",5 to 50 nM,5 to 50 nM,0.5 to 5 nM,–,5 to 50 nM
"C=CC(=O)N1CC[C@H](n2cc(C#Cc3cc4nc(C)sc4cc3F)c3c(N)ncnc32)C1 [Example 47, (S)-1-(3-(4-amino-5-((6-fluoro-2-methylbenzo[d]thiazol-5-yl)ethynyl)-7H-pyrrolo[2,3-d]pyrimidin-7-yl)pyrrolidin-1-yl)prop-2-en-1-one]",5 to 50 nM,–,≤ 0.5 nM,–,–
"C=CC(=O)N1CC[C@H](n2cc(C#Cc3cc4nc(C5CC5)oc4cc3F)c3c(N)ncnc32)C1 [Example 65, (S)-1-(3-(4-amino-5-((2-cyclopropyl-6-fluorobenzo [d]oxazol-5-yl)ethynyl)-7H-pyrrolo[2,3-d]pyrimidin-7-yl)pyrrolidin-1-yl)prop-2-en-1-one]",0.5 to 5 nM,–,≤ 0.5 nM,–,–
"C=CC(=O)N1CC[C@H](n2cc(C#Cc3cc4nc(C(F)F)sc4cc3F)c3c(N)ncnc32)C1 [Example 50, (S)-1-(3-(4-amino-5-((2-(difluoromethyl)-6-fluoro-benzo[d]thiazol-5-yl)ethynyl)-7H-pyrrolo[2,3-d]pyrimidin-7-yl)pyrrolidin-1-yl) prop-2-en-1-one]",5 to 50 nM,–,0.5 to 5 nM,–,–
"C=CC(=O)N1CC[C@H](n2nc(C#Cc3cc4nc(NCC)oc4cc3F)c3c(N)ncnc32)C1 [Example 30, (S)-1-(3-(4-amino-3-((2-(ethylamino)-6-fluorobenzo [d]oxazol-5-yl)ethynyl)-1H-pyrazolo[3,4-d]pyrimidin-1-yl)pyrrolidin-1-yl) prop-2-en-1-one]",5 to 50 nM,–,0.5 to 5 nM,–,–
"C=CC(=O)N1CC[C@H](n2nc(C#Cc3cnc4sc(C)nc4c3)c3c(N)ncnc32)C1 [Example 41, (S)-1-(3-(4-amino-3-((2-methylthiazolo[5,4-6]pyridin-6-yl)ethynyl)-1H-pyrazolo [3,4-d]pyrimidin-1-yl)pyrrolidin-1-yl)prop-2-en-1-one]",50 to 500 nM,0.5 to 5 nM,5 to 50 nM,–,5 to 50 nM
"C=CC(=O)N1CC[C@H](n2nc(C#Cc3cc4nc(NC5CC5)oc4cc3F)c3c(N)ncnc32)C1 [Example 33, (S)-1-(3-(4-amino-3-((2-(cyclopropylamino)-6-fluorobenzo[d]oxazol-5-yl)ethynyl)-1H-pyrazolo[3,4-d]pyrimidin-1-yl)pyrrolidin-1-yl)prop-2-en-1-one]",50 to 500 nM,–,0.5 to 5 nM,–,–
